Assay results published in patent US20070270455A1, “INHIBITION OF NF-kB” (priority 2005, published 2007).

How the values were obtained:
RCC45ConALacZ cells = experiment: p53-responsive reporter (ConALacZ) β-galactosidase assay in RCC45 cells; type: cell-based; settings: compared with doxorubicin
Experimental: 2×10^4 of RCC45ConALacZ cells were plated into wells of 96 well plates in 200 μL of phenol-red free RPMI medium with standard additives. After overnight incubation library of chemical compounds in DMSO solution together with controls was added with the help of plastic bacterial replicators (200+/−100 nL). Final concentration of compounds was around 5 μg/ml. Negative control was DMSO, positive control was doxorubicin solution (0.2, 0.6 and 2 μM). After 24 hours lysis buffer with ONPG was added directly to the medium on ice. After 3 hours of incubation at 37° C., β-galactosidase activity was estimated by reading absorbance values Wallack 1420 plate reader (Perkin Elmer) at λ=430 nm.
For cotransfection set-up, 2×10^5 cells were plated into 6 well plates and, after overnight incubation, transfected with Lipofectamin Plus reagent (Gibco BRL) with 0.5 μg of reporter plasmids (p21-ConALuc or pNF-κBLuc) in combination with different concentrations of p53, Arf, Ss-IκB, or siHDM2 expressing plasmids. […] Luciferase activity and β-galactosidase activity was measured in lysates prepared 48 hours after transfection with Cell Lysis Buffer (Promega) by luciferase assay system (Promega) or β-galactosidase enzyme system (Promega). Luminometric and colorimetric reactions were read on the Wallack 1420 plate reader (Perkin Elmer). […]

topoisomerase II = experiment: DNA—Topoisomerase II activity assay; type: cell-based; settings: in vitro; HT1080 cells, 1 h
Experimental: Western blot analysis of total protein lysates was performed using antibodies against p53 (DO1) and against specific sites of phosphorylation in p53. […] HCT116 cells were treated for 30 minutes with 1 μM PS-341. PS-341 was washed off after 30 minutes and cells were re-incubated in drug free medium prior to analysis at 3 hours or 16 hours post-treatment. […] Proteasome activity was determined by measuring the absorbance of free AMC generated by cleavage of an AMC-fluorogenic peptide. The proteasome activity of untreated cells was set at 100%. […] Cell lysates were isolated at the indicated hours after treatment and used for western blotting. Blots were probed with antibodies specific for both phosphorylated and unphosphorylated forms of IκB-α. β-actin specific antibodies were used as a loading control.
HT1080 cells were labeled for 24 hours with 0.02 to 0.04 mCi/mL of [^14C] thymidine, specific activity 53 mCi/mmol (Amersham). […] The induction of topo II-mediated DNA scission was determined by measuring precipitation of the protein DNA complex using a modification of the SDS-KCl technique.

Compound: Nc1c2ccccc2nc2ccccc12 [9AA, 9-aminoacridine]
- p53 reactivation / reporter induction (in words) (RCC45ConALacZ cells): much stronger than doxorubicin
- effect on topoisomerase II activity (topoisomerase II): no effect
